Source: patent US20250101062A1, “ANTIMICROBIAL PEPTIDES” (Board of Regents of the University of Nebraska, priority 2023, published 2025)
Where no end group is shown, it is not given here.

Assays:
[1] = system: human red blood cells; test: Hemolytic assay; format: cell-based; settings: human, 1 h, 400 μM
How it was run: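 Washed human erythrocytes at 2% in isotonic saline incubated 1 h at 37 °C with serially diluted peptides. After centrifugation, released hemoglobin read at 545 nm relative to 1% Triton X-100; HC50 is the peptide concentration giving 50% lysis.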

[2] = system: P. aeruginosa E411-17; test: Membrane depolarization (DiBAC4(3)); format: cell-based, Pseudomonas aeruginosa; settings: Example 2, PBS with glucose
Description: Bacterial membrane depolarization was conducted (Marks, et al. (2013) PLoS One 8(5):e63158). Briefly, an overnight culture of MRSA USA300 or P. aeruginosa E411-17 was inoculated into TSB and grown to exponential phase. Bacteria were washed with 1×PBS, re-suspended in twice the volume of 1×PBS containing 25 mM glucose, and incubated at 37° C. for 15 minutes. Then, 500 nM (final concentration) of the DiBAC4 (3) bis-(1, 3-dibutylbarbituric acid) trimethine oxonol (ANASPEC, CA) was added and vortexed gently. Aliquots of 90 μL of the energized bacteria solution were loaded to the 96 well plates (Corning COSTAR, AZ) and placed in a FLUOstar® Omega microplate reader (BMG LABTECH, NC). Fluorescence was read for 20 minutes at excitation and emission wavelengths of 485 nm and 520 nm, respectively. Then, 10 μL of peptide solutions was added and fluorescence readings were recorded for 40 minutes. Triton® X-100 (0.1%) was used as a positive control.

[3] = system: K. pneumoniae E406-17; format: cell-based, Klebsiella pneumoniae
How it was run: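 Peptides twofold serially diluted against exponential-phase resistant clinical isolates at ~10^5 CFU/mL in MHB (also diluted MHB, TSB or LB in one protocol), CLSI-based broth microdilution. Incubated overnight at 37° C., OD 600 nm read; MIC taken as lowest concentration without growth, reported as ranges.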

[4] = system: trypsin; settings: peptide:protease 40:1, 37° C., 1 hour
Description: A solution of peptide/protease (40:1 molar ratio) was made in phosphate-buffered saline (PBS; pH 7.1, Gibco, NY) and incubated at 37° C. for 1 hour. As controls, peptides without proteases were also incubated in the same manner. Then, aliquots of 10 μL were transferred to a 96-well polystyrene microplate and mixed with the exponential-phase MRSA USA300 culture as performed in the antibacterial activity assays above.

[5] = system: S. aureus USA300 LAC; test: Scanning electron microscopy; format: cell-based, Staphylococcus aureus; settings: 2×MIC, 30 minutes
Description: The exponential-phase S. aureus USA300 LAC was treated with a 2×MIC of LL-37mini for 30 minutes. Samples were washed three times with 1×PBS and fixed with 2% paraformaldehyde and 2% glutaraldehyde in 0.1 M PBS. Next, the samples were washed with Sorensen's buffer and postfixed in 1% osmium tetroxide in water for 30 minutes. All samples were then washed in Sorensen's buffer and dehydrated through a graded ethanol series (50, 70, 90, 95, and 100% with ×3 changes). Subsequently, samples were placed in […] 100% for 10 minutes with three changes and left in HMDS in open dishes in the fume hood overnight to allow the HMDS to evaporate. The following day, the samples were mounted on 25 mm aluminum SEM stubs with carbon adhesive tabs. Silver paste was placed around the edges of the samples. Samples were sputter coated with 50 nm of gold/palladium in a Hummer VI sputter coater (Anatech Ltd., Battle Creek, MI) and examined in an FEI Quanta 200 SEM at the UNMC Electron Microscopy Core Facility.

CCCCCCCCCC(=O)N[C@@H](Cc1c[nH]c2ccccc12)C(=O)N[C@H](CC(N)=O)C(=O)N[C@@H](CC(=O)O)C(=O)N[C@@H]1C(=O)NCC(=O)N[C@@H](CCCN)C(=O)N[C@@H](CC(=O)O)C(=O)N[C@H](C)C(=O)N[C@@H](CC(=O)O)C(=O)NCC(=O)N[C@H](CO)C(=O)N[C@@H]([C@H](C)CC(=O)O)C(=O)N[C@@H](CC(=O)c2ccccc2N)C(=O)O[C@@H]1C [Daptomycin]
hemolysis [1]: did not lyse human red blood cells even at 400 μM

CC[C@H](C)[C@H](NC(=O)[C@H](CCCCN)NC(=O)[C@H](CCC(=O)O)NC(=O)[C@H](CCCCN)NC(=O)[C@H](CO)NC(=O)[C@H](CCCCN)NC(=O)[C@H](CCCNC(=N)N)NC(=O)[C@H](Cc1ccccc1)NC(=O)[C@H](Cc1ccccc1)NC(=O)[C@H](CC(=O)O)NC(=O)CNC(=O)[C@H](CC(C)C)NC(=O)[C@@H](N)CC(C)C)C(=O)NCC(=O)N[C@@H](CCCCN)C(=O)N[C@@H](CCC(=O)O)C(=O)N[C@@H](Cc1ccccc1)C(=O)N[C@@H](CCCCN)C(=O)N[C@@H](CCCNC(=N)N)C(=O)N[C@H](C(=O)N[C@H](C(=O)N[C@@H](CCC(N)=O)C(=O)N[C@@H](CCCNC(=N)N)C(=O)N[C@H](C(=O)N[C@@H](CCCCN)C(=O)N[C@@H](CC(=O)O)C(=O)N[C@@H](Cc1ccccc1)C(=O)N[C@@H](CC(C)C)C(=O)N[C@@H](CCCNC(=N)N)C(=O)N[C@@H](CC(N)=O)C(=O)N[C@@H](CC(C)C)C(=O)N[C@H](C(=O)N1CCC[C@H]1C(=O)N[C@@H](CCCNC(=N)N)C(=O)N[C@H](C(=O)N[C@@H](CCC(=O)O)C(=O)N[C@@H](CO)C(=O)O)[C@@H](C)O)C(C)C)[C@@H](C)CC)C(C)C)[C@@H](C)CC [LL-37]
membrane depolarization [2]: most powerful in membrane depolarization

RRWWRWWR-NH2 [W543]
Activity (MIC) K. pneumoniae [3]: >32 µM | activity after protease incubation [4]: started to lose activity | cell morphology by SEM [5]: cell damages were evident
